From US20240150368A1, “ULK INHIBITORS AND METHODS OF USE THEREOF” (Deciphera Pharmaceuticals, LLC, priority 2022, published 2024)

Assays:
ULK1 kinase = target: T1, ULK1 kinase (Homo sapiens, UniProt O75385, E37A/K38A); assay: Biochemical assay for ULK1 (coupled pyruvate kinase/lactate dehydrogenase assay); settings: 1 mM ATP, 0.1 nM ULK1; read-out: ULK1 (inhibition of biochemical activity), IC50
T1 construct: (residues 1-283; ID NO: 1); purchased Beryllium
T1 sequence (O75385 1-283 E37A/K38A): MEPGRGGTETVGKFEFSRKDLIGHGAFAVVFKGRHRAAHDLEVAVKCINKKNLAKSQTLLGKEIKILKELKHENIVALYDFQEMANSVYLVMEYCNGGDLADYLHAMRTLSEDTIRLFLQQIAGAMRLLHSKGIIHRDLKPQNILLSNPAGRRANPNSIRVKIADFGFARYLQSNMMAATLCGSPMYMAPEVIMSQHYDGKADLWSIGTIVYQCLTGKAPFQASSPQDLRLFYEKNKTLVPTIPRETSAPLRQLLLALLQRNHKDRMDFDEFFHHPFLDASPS
Protocol: Biochemical Assay for ULK1 (SEQ. ID NO: 1)
Activity of ULK1 kinase was determined spectroscopically using a coupled pyruvate kinase/lactate dehydrogenase assay that continuously monitors the ATP hydrolysis-dependent oxidation of NADH (e.g., Schindler et al. Science (2000) 289: 1938-1942). Assays were conducted in 384-well plates (100 μL final volume) using 0.1 nM ULK1 (from Beryllium), 0.075 mM peptide substrate (YANWLAASIYLDGKKK), 1.5 units pyruvate kinase, 2.1 units lactate dehydrogenase, 1 mM phosphoenol pyruvate, 0.28 mM NADH and 1 mM ATP in assay buffer (100 mM Tris, pH 7.5, 15 mM MgCl2, 0.5 mM DTT, 0.004% (w/v) BSA, and 0.004% Triton X-100). Inhibition of ULK1 was measured by adding serial diluted test compound (final assay concentration of 1% DMSO). A decrease in absorption at 340 nm was monitored continuously for 6 h at 30° C. on a multi-mode microplate reader (BioTek). The reaction rate was calculated using the 2-3 h time frame. The reaction rate at each concentration of compound was converted to percent inhibition using controls (i.e., reaction with no test compound and reaction with a known inhibitor) and IC50 values were calculated using software routines in Prism (GraphPad software).

[1] = tested on: ULK kinase substrate ATG13 (pS318-ATG13) in MiaPaCa-2 cells; assay: pATG13 levels of mutant KRas MiaPaCa-2 cells after treatment with ULK inhibitors in combination with trametinib (ELISA); assay type: cell-based, human
Protocol: pATG13 Levels of Mutant KRas MiaPaCa-2 Cells after Treatment with ULK Inhibitors in Combination with Trametinib
(§1) MiaPaCa-2 human pancreatic cancer cells (10000 cells/well) were added to a 384-well tissue-culture treated plate in 50 μL of pre-warmed DMEM medium supplemented with 10% characterized fetal bovine serum (Invitrogen, Carlsbad, CA), 100 units/mL penicillin G, 100 μg/mL streptomycin, and 2.5% Horse Serum and allowed to grow overnight at 37° C., 5% CO2, and 95% humidity. The following day, 10 μL of media containing trametinib or DMSO as a control was added to wells. The final concentration of trametinib in wells was 250 nM. A dose response of a test compound (0.6 μL per well) was added. DMSO (0.6 μL) was added to control wells. The plate was briefly shaken to mix wells and then incubated at 37° C. overnight. The next day, the media was aspirated and cells were washed with Dulbecco's Phosphate Buffered Saline (Gibco). Cells were lysed using MPER lysis buffer (Pierce, Rockford, IL) containing Halt Phosphatase and Protease Inhibitors (Pierce, Rockford, IL) and Phosphatase inhibitor cocktail 2 (Sigma, St. Louis, MO) at 4° C. for 10 minutes with shaking.
(§2) Cellular levels of phospho-Serine 318 ATG13 (pATG13) were measured via an ELISA method. Total ATG13 Antibody (Cell Signaling Cat #13273) was used to coat the wells. The plate was incubated at 4° C. overnight and washed with ELISA wash buffer (Biolegend Cat #421601). The wells were then blocked with assay diluent (Biolegend Cat #421203) for 1 h at rt. Plate wells were washed with ELISA wash buffer. Cell lysate was added to wells and incubated at rt for 2 h. Plate wells were washed with ELISA wash buffer. Biotinylated pS318-ATG13 antibody (Rockland Immunochemicals Cat #600-401-C49) was diluted in assay diluent and added to each well and incubated at rt for 1 h. Plate wells were washed with ELISA wash buffer. Streptavidin linked to horseradish peroxidase (Thermo Fisher Cat #21140) was diluted in assay diluent and added to each well and incubated at rt for 1 h. Plate wells were washed with ELISA wash buffer. High sensitivity TMB substrate (Biolegend Cat #421101) was added to each well and incubated at rt for 20 min. The reaction was stopped with 2.0N sulfuric acid. The plate was analyzed at on a plate reader measuring absorbance at 450 nm and 540 nm (background). Signal was calculated by first subtracting the background absorbance at 540 nm from the absorbance at 450 nm for each well. Next, the background corrected absorbance at 450 nm from blank wells was subtracted from test wells. Data was compared to control wells to determine % ATG13 phosphorylation. GraphPad Prism was used to calculate IC50 values.

[2] = tested on: ULK kinase substrate ATG13 (pS318-ATG13) in A549 (KRAS mutant) cells; assay: pATG13 levels of mutant KRas A549 cells after treatment with ULK inhibitors in combination with trametinib (ELISA); assay type: cell-based, human
Protocol: Cellular Inhibition of ULK Kinase Substrate ATG13 Protein pATG13 Levels of Mutant KRas A549 Cells after Treatment with ULK Inhibitors in Combination with Trametinib
as §1, with “A549 (KRAS mutant)” for “MiaPaCa-2”, “lung” for “pancreatic”, “(6,000” for “(10000”, “G, and” for “G,”, “streptomycin” for “streptomycin, and 2.5% Horse Serum”, “min” for “minutes”
as §2, with “2N Sulfuric Acid.” for “2.0N sulfuric acid.”

ULK2 kinase = target: T2, ULK2 kinase (Homo sapiens, UniProt Q8IYT8); assay: Biochemical assay for ULK2 (coupled pyruvate kinase/lactate dehydrogenase assay); settings: 1 mM ATP, 1 nM ULK2; read-out: ULK2 (inhibition of biochemical activity), IC50
T2 construct: (residues 1-306 with N-terminal GST and His tag; ID NO: 2); purchased Signal Chem U02-11G
T2 sequence (Q8IYT8 with tags, fused parts or gaps): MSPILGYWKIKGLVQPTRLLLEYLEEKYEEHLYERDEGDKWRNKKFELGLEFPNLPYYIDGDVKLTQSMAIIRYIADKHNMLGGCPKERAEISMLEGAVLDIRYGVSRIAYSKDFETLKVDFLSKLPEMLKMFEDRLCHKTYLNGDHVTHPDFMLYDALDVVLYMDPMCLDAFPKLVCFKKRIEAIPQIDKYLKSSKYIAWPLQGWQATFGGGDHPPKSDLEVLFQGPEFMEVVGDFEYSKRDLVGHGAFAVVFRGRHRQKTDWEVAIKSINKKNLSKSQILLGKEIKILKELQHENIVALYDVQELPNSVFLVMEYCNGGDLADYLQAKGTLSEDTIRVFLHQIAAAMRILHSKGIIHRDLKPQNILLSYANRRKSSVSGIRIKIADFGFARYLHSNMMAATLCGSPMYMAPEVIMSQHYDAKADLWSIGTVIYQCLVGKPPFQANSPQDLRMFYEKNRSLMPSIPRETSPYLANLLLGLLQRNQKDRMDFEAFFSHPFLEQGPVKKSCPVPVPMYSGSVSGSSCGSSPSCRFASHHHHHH
Protocol: Biochemical Assay for ULK2 (SEQ. ID NO: 2)
Activity of ULK2 kinase was determined spectroscopically using a coupled pyruvate kinase/lactate dehydrogenase assay that continuously monitors the ATP hydrolysis-dependent oxidation of NADH (e.g., Schindler et al. Science (2000) 289: 1938-1942). Assays were conducted in 384-well plates (100 μL final volume) using 1 nM ULK2 (Signal Chem U02-11G), 200 μM ULKtide, 1.5 units pyruvate kinase, 2.1 units lactate dehydrogenase, 1 mM phosphoenol pyruvate, 0.28 mM NADH and 1 mM ATP in assay buffer (100 mM Tris, pH 7.5, 15 mM MgCl2, 0.5 mM DTT, 0.1% octyl-glucoside, 0.002% (w/v) BSA, and 0.002% Triton X-100). Inhibition of ULK2 was measured by adding serial diluted test compound (final assay concentration of 1% DMSO). A decrease in absorption at 340 nm was monitored continuously for 6 h at 30° C. on a multi-mode microplate reader (BioTek). The reaction rate was calculated using the 2-3 h time frame. The reaction rate at each concentration of compound was converted to percent inhibition using controls (i.e., reaction with no test compound and reaction with a known inhibitor) and IC50 values were calculated by fitting a four-parameter sigmoidal curve to the data using Prism (GraphPad software).

Row | Structure (SMILES) | IC50 (ULK1 kinase) | IC50 [1] | IC50 [2] | IC50 (ULK2 kinase)
1 | CC/C(Nc1cnn(C2CCN(C(C)C)CC2)c1)=C1/C(=O)Nc2ccc(C(=O)N(C)C)cc21 [Example 2, (Z)-3-(1-((1-(1-isopropylpiperidin-4-yl)-1H-pyrazol-4-yl)amino)propylidene)-N,N-dimethyl-2-oxoindoline-5-carboxamide] | 100 to 500 nM | 100 to 300 nM | > 600 nM | –
2 | CC/C(Nc1cnn(C(C)C)c1)=C1/C(=O)Nc2ccc(C(=O)C3CC3)cc21 [Example 6, (Z)-5-(cyclopropanecarbonyl)-3-(1-((1-isopropyl-1H-pyrazol-4-yl)amino)propylidene)indolin-2-one] | 10 to 100 nM | – | 100 to 300 nM | 100 to 500 nM
3 | CC/C(Nc1ccc(N2CCN(C)CC2)cc1)=C1/C(=O)Nc2ccc(C(=O)NCCOC)cc21 [Example 11] | 10 to 100 nM | ≤ 100 nM | 300 to 600 nM | –
4 | CCCNC(=O)c1ccc2c(c1)/C(=C(\CC)Nc1cnn(C3CCN(C(C)C)CC3)c1)C(=O)N2 [Example 15] | ≤ 10 nM | ≤ 100 nM | ≤ 100 nM | –
5 | C/C(Nc1cnn(C2CCN(C(C)C)CC2)c1)=C1/C(=O)Nc2ccc(C(=O)NCC(F)(F)F)cc21 [Example 24] | ≤ 10 nM | ≤ 100 nM | 300 to 600 nM | –
6 | CC/C(Nc1cnn(C2CCN(C3CCC3)CC2)c1)=C1/C(=O)Nc2ccc(C(=O)NCC(C)C)cc21 [Example 32] | ≤ 10 nM | ≤ 100 nM | ≤ 100 nM | –
7 | CC/C(Nc1cnn(C2CCN(C3CCCC3)CC2)c1)=C1/C(=O)Nc2ccc(C(=O)NCC(C)C)cc21 [Example 33] | ≤ 10 nM | ≤ 100 nM | ≤ 100 nM | –
8 | CC/C(Nc1cnn(C2CCN(C3CCCCC3)CC2)c1)=C1/C(=O)Nc2ccc(C(=O)NCC(C)C)cc21 [Example 34] | ≤ 10 nM | ≤ 100 nM | ≤ 100 nM | –
9 | CC/C(Nc1cnn(C2CCN(C3COC3)CC2)c1)=C1/C(=O)Nc2ccc(C(=O)NCC(C)C)cc21 [Example 35] | ≤ 10 nM | ≤ 100 nM | 300 to 600 nM | –
10 | CC/C(Nc1cnn(C2CCN(C3CCOC3)CC2)c1)=C1/C(=O)Nc2ccc(C(=O)NCC(C)C)cc21 (stereo not drawn) [Example 36] | ≤ 10 nM | ≤ 100 nM | 100 to 300 nM | –

The next lines start with the values.

Row | IC50 (ULK1 kinase) | IC50 [1] | IC50 [2] | IC50 (ULK2 kinase) | Structure (SMILES)
11 | ≤ 10 nM | ≤ 100 nM | ≤ 100 nM | – | CC/C(Nc1cnn(C2CCN(CC(C)C)CC2)c1)=C1/C(=O)Nc2ccc(C(=O)NCC(C)C)cc21 [Example 38]
12 | ≤ 10 nM | ≤ 100 nM | ≤ 100 nM | – | CC/C(Nc1cnn(C2CCN(CC3CC3)CC2)c1)=C1/C(=O)Nc2ccc(C(=O)NCC(C)C)cc21 [Example 39]
13 | ≤ 10 nM | ≤ 100 nM | ≤ 100 nM | – | CC/C(Nc1cnn(C2CCN(CC3CCC3)CC2)c1)=C1/C(=O)Nc2ccc(C(=O)NCC(C)C)cc21 [Example 40]
14 | ≤ 10 nM | ≤ 100 nM | ≤ 100 nM | – | CC/C(Nc1cnn(C2CCN(CCOC)CC2)c1)=C1/C(=O)Nc2ccc(C(=O)NCC(C)C)cc21 [Example 41]
15 | ≤ 10 nM | ≤ 100 nM | – | ≤ 10 nM | CC/C(Nc1ccc(N2CCN(C)CC2)c(F)c1)=C1/C(=O)Nc2ccc(C(=O)NCC(F)(F)F)cc21 [Example 72]
16 | 100 to 500 nM | 100 to 300 nM | – | 100 to 500 nM | CC/C(Nc1ccc(N2CCN(C)CC2)cc1F)=C1/C(=O)Nc2ccc(C(=O)NCC(F)(F)F)cc21 [Example 73]
17 | 100 to 500 nM | 100 to 300 nM | – | > 500 nM | CC/C(Nc1cnc(N2CCN(C)CC2)nc1)=C1/C(=O)Nc2ccc(C(=O)NCC(F)(F)F)cc21 [Example 76]
18 | ≤ 10 nM | – | ≤ 100 nM | 10 to 100 nM | CC/C(Nc1cnn(C2CCN(C(C)C)CC2)c1)=C1/C(=O)Nc2ccc(C(=O)NCC3(C)CCCO3)cc21 (stereo not drawn) [Example 174]
